Data on seven compounds can be found in PMC8092340 (Oncotarget, 2021).

The IC50 is the concentration that inhibits the measured activity by half. The term half-life denotes the time needed for the level to fall by half in the phase considered. Broadly, the Cmax is the maximum level reached in the sampled fluid or tissue.

The test system of one data set is EJ-DR U2OS cells. As to the kind of experiment: Cytotoxicity in the absence of DSB ligands (CT), Hoechst cell count. Type of data set: cell-based, human. Conditions: Homo sapiens, U2OS; Supplementary Table 2, mean ± SEM of four technical replicates.
Data set [1] concerns alt-NHEJ. Conditions: ratio; Supplementary Table 2.
The subject of another data set is HR. As to the kind of experiment: EJ-DR 384-well imaging assay, HR (GFP) readout. Conditions: Homo sapiens, read-out: HR IC50.
For data set [2], the system named is alt-NHEJ. The experiment in a line: EJ-DR 384-well imaging assay, alt-NHEJ (RFP) readout. Conditions: for IC50: Homo sapiens; for selectivity index SI (CT IC50/alt-NHEJ IC50): ratio.
Data set [3] is described as follows: Cytotoxicity in the absence of DSB ligands (CT), Hoechst cell count. In kind it is cell-based, human. Conditions: human, EJ-DR U2OS cells, no DSB ligands.
Another data set concerns the target T1, Human hERG (Kv11.1) (Homo sapiens, UniProt Q12809).
T1 construct: host or cells: CHO-K1
The experiment in a line: Automated hERG inhibition patch clamp assay. In kind it is cell-based. Conditions: for IC50: patch clamp, CHO-K1 cells; for SIhERG (hERG IC50/alt-NHEJ IC50), called fold reduction in hERG potency: ratio. How it is done: Automated whole cell voltage clamp hERG inhibition assays were performed in Human hERG (Kv11.1) expressed in CHO-K1 cells optimized for automated patch clamp studies by Sophion Bioscience A/S [47].
(Block of hERG is tested as a sign of cardiac risk.)

Another data set concerns the target T2, L type Cav 1.2 (Homo sapiens, UniProt Q13936).
T2 construct: host or cells: CHO
As to the kind of experiment: Calcium channel blocking study, L-type. In kind it is cell-based. Conditions: CHO cells stably expressing the channel.

The target of the next data set is T3, T type Cav 3.1 (Homo sapiens, UniProt O43497).
T3 construct: host or cells: HEK293
T3 sequence (O43497 whole entry): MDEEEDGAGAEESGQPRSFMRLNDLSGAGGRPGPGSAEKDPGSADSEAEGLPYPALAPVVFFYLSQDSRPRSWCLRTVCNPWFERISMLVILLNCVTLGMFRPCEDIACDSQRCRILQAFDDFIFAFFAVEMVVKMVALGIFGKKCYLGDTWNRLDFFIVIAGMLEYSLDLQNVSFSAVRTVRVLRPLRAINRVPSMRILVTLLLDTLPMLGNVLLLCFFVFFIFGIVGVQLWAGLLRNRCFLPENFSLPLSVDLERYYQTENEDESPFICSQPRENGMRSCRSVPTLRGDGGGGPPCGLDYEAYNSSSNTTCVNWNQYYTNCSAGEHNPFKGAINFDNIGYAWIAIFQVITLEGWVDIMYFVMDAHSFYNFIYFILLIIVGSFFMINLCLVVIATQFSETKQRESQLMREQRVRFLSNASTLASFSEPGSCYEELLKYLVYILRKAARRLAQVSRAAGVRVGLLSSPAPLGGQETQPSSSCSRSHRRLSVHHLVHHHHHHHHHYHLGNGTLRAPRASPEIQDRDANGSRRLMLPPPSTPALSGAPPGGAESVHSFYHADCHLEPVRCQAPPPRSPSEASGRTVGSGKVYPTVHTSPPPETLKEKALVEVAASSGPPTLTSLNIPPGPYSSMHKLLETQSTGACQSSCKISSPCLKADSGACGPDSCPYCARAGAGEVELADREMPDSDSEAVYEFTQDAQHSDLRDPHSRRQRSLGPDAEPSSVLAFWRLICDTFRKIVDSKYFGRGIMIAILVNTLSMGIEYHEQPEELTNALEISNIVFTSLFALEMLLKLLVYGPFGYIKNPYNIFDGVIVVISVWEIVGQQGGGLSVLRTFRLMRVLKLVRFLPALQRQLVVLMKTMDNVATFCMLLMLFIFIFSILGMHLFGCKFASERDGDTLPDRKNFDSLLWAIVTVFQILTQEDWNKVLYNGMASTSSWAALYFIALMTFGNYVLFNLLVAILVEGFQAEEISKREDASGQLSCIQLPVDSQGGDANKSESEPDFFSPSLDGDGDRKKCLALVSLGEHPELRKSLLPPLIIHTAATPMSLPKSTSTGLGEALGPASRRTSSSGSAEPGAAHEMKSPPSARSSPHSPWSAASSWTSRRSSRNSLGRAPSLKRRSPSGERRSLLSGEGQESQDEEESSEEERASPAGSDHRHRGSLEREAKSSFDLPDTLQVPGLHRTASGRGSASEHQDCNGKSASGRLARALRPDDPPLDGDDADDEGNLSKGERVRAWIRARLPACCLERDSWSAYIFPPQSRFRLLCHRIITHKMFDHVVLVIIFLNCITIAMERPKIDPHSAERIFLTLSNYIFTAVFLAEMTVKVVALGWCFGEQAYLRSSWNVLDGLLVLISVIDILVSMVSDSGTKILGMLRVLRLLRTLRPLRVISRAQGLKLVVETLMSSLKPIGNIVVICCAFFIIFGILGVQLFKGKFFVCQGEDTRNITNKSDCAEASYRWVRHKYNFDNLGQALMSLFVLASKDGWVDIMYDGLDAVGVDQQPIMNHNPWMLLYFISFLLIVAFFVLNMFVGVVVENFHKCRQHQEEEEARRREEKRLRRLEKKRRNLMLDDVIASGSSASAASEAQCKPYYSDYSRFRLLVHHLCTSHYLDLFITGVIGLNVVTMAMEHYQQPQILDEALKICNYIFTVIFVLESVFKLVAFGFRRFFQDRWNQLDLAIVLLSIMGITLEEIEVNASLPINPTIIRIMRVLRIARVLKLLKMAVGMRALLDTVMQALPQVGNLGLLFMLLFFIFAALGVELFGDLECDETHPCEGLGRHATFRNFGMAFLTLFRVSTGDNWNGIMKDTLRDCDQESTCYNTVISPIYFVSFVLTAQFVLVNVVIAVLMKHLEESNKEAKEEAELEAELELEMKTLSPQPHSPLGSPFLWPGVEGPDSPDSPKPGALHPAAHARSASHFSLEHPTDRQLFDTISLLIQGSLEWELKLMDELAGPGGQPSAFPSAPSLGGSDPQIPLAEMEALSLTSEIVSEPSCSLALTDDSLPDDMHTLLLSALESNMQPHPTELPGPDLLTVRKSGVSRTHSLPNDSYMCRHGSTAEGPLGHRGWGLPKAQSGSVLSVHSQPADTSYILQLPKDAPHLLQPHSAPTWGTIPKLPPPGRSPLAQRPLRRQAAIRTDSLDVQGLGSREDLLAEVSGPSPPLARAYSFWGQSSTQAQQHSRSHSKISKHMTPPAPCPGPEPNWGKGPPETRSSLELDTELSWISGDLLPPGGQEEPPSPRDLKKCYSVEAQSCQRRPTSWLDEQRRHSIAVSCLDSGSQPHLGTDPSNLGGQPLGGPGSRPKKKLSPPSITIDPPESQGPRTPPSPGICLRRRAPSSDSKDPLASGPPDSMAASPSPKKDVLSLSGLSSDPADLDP
The experiment in a line: Calcium channel blocking study, T-type Cav3.1. In kind it is cell-based. Conditions: HEK293 cells stably expressing the channel.

The next data set concerns the target T4, T type Cav 3.2 (Homo sapiens, UniProt O95180).
T4 construct: host or cells: HEK293
The experiment in a line: Calcium channel blocking study, T-type Cav3.2. In kind it is cell-based. Conditions: HEK293 cells stably expressing the channel.

A further data set has as its target T5, T type Cav 3.3 (Homo sapiens, UniProt Q9P0X4).
T5 construct: host or cells: HEK293
The experiment in a line: Calcium channel blocking study, T-type Cav3.3. In kind it is cell-based. Conditions: HEK293 cells stably expressing the channel.

The nature of data set [4]: In vivo pharmacokinetic study, plasma. How it is done:
(§1) These measurements were used to calculate various pharmacokinetic parameters critical to bioavailability including time to reach maximum concentration (tmax), maximum concentration achieved (Cmax), and half-life (t1/2) (Figure 5C, 5D, Supplementary Table 1).
(§2) Compound concentrations were measured at these time-points using Liquid Chromatography with tandem mass spectrometry (LC-MS-MS). Pharmacokinetic studies were performed by orally dosing test compounds at 30 mg/kg dissolved in 50% PEG400 and 50% water in female athymic nude mice. Plasma and brain tissue concentration were measured using mass spectrometry (MS).

Data set [5] is described as follows: In vivo pharmacokinetic study, brain tissue. On the procedure:
as §1, §2

The target of the next data set is T6, CYP3A4 (Homo sapiens, UniProt P08684).
T6 construct: tissue Eurofins Scientific; host or cells: human liver microsomes
T6 sequence (P08684 whole entry): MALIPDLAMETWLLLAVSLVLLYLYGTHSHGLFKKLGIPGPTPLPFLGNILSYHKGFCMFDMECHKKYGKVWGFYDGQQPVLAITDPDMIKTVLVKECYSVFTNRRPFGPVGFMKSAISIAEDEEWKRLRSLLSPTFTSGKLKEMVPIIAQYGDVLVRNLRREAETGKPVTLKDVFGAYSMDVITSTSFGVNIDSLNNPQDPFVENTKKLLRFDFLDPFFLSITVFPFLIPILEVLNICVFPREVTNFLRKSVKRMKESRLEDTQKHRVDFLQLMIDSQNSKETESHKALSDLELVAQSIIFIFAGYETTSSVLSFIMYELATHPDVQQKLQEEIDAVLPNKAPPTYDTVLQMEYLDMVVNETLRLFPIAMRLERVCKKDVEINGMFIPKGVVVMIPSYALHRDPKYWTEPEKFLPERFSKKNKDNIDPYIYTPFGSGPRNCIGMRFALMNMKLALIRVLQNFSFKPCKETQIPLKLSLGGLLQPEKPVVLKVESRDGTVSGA
The experiment in a line: Cytochrome P450 inhibition assay in human liver microsomes, CYP3A4. In kind it is in vitro ADME. On the procedure:
(§3) CYP inhibition assays were performed by Eurofins Scientific. Test compounds were incubated with human liver microsomes, followed by compound detection using high performance liquid chromatography with tandem mass spectrometry (HPLC-MS/MS).
(Microsomes from liver hold many membrane-bound enzymes, among them those of drug oxidation.)

In the next data set the target is T7, CYP2D6 (Homo sapiens, UniProt P10635).
T7 construct: tissue Eurofins Scientific; host or cells: human liver microsomes
T7 sequence (P10635 whole entry): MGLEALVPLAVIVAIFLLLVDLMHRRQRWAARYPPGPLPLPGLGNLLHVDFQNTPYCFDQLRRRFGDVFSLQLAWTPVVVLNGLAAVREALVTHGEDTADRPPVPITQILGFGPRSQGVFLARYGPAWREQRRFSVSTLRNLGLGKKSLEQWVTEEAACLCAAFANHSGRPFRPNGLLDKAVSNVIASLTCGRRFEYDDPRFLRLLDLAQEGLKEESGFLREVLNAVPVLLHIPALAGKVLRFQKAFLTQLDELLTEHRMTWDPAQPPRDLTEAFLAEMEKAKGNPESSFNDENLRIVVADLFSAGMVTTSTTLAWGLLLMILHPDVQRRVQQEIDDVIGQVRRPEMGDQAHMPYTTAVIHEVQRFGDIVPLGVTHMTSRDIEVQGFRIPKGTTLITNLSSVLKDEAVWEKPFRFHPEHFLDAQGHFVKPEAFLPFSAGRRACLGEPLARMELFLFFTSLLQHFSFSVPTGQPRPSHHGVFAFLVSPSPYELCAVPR
The experiment in a line: Cytochrome P450 inhibition assay in human liver microsomes, CYP2D6. Type of data set: in vitro ADME. Conditions: human liver microsomes. How it is done:
as §3

The mark [6] stands for this setting: figures, read-out: CT IC50 (cytotoxicity).
Where [7] appears, read: Table 1, read-out: Cytotoxicity IC50.
Setting [8] is: oral 30 mg/kg, female athymic nude mice.
Where [9] appears, read: oral 30 mg/kg, female athymic nude mice, YU252222 given as methyl ester prodrug.
Where [10] appears, read: female, athymic nude, mouse, in vivo, po, 30 mg/kg.

Where two headings read alike, the source gives them in different places.

T1 sequence (Q12809 whole entry): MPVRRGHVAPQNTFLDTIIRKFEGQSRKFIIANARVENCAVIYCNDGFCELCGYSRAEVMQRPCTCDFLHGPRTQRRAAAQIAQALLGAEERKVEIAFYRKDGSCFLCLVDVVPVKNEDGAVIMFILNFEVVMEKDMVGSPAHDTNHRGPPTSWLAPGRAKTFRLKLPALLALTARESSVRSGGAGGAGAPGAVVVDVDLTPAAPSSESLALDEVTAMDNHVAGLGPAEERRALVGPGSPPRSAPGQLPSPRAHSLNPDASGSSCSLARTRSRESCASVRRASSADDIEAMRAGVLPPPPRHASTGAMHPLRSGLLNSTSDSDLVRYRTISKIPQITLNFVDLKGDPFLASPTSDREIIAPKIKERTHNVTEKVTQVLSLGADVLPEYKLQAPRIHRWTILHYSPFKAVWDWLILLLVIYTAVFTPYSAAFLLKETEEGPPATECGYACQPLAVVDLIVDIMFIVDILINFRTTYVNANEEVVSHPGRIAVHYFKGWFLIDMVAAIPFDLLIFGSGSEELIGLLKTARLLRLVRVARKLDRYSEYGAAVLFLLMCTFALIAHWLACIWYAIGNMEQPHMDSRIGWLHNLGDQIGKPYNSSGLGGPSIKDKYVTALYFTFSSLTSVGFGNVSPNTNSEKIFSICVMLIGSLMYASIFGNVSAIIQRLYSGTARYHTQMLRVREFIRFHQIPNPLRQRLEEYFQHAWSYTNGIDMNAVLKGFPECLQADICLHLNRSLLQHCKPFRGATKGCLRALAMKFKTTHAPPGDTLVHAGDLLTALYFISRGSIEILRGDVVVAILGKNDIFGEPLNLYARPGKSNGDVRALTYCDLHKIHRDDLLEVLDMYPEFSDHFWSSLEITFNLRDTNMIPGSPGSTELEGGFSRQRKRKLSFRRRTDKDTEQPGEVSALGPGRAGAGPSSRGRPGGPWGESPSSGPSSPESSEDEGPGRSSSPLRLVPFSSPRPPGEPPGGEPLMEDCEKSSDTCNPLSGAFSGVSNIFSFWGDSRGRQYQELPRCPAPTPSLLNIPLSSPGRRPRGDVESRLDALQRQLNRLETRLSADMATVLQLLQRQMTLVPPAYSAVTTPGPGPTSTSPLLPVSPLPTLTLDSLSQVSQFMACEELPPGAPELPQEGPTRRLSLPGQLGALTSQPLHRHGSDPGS

On to `Cn1ncc(Cl)c1-c1cc(C(=O)N[C@H](CN)Cc2cccc(F)c2)sc1Cl` [Afuresertib], for which the values for the IC50 in the data set on EJ-DR U2OS cells, with HR and in the data set with alt-NHEJ [2] (read-out: alt-NHEJ IC50) were 14.2 ± 2.32 µM, 4.53 ± 5.75 µM and 0.61 ± 0.46 µM, respectively. Further, the “Selectivity Index (HR IC50/alt-NHEJ IC50)” value with alt-NHEJ [1] is reported as 7.43.

On to `CC(C)[C@H]1c2ccc(F)cc2CC[C@]1(O)CC(=O)N(C)CCCc1nc2ccccc2[nH]1` [YU241551], for which, in data set [3] (setting [6]), the IC50 at 96 h was over 60 µM. Moreover, the IC50 with alt-NHEJ [2] (U2OS, read-out: alt-NHEJ IC50) was over 60 µM. In the data set with alt-NHEJ [2], the “selectivity index SI (CT IC50/alt-NHEJ IC50)” value is on record as over 1.

For the compound `CC(C)[C@H]1c2ccc(F)cc2CC[C@]1(O)CCN(C)CC(O)c1ccccc1` (some centres unmarked) [YU241553], in [3] (setting [6]), the IC50 at 96 h was 24 µM. For the same compound, in the data set on alt-NHEJ [2] (U2OS, read-out: alt-NHEJ IC50), the IC50 amounted to 8.87 µM. Besides, the “selectivity index SI (CT IC50/alt-NHEJ IC50)” value in the data set with alt-NHEJ [2] was 2.71.

Regarding `CC(C)[C@H]1c2ccc(F)cc2CC[C@]1(O)CCN1C[C@H](Oc2nccc3ccccc23)C[C@H]1CO` [YU252223], at Human hERG (Kv11.1), 6.8 µM corresponded to half-maximal inhibition (IC50) and the “SIhERG (hERG IC50/alt-NHEJ IC50), called fold reduction in hERG potency” value is 4.14. Besides, in the data set with alt-NHEJ [2] (U2OS, read-out: alt-NHEJ IC50), the IC50 was determined as 1.64 µM.

On to `COC[C@@H]1C[C@@H](Oc2nccc3ccccc23)CN1CC[C@@]1(O)CCc2cc(F)ccc2[C@@H]1C(C)C` [YU252373], for which the IC50 against Human hERG (Kv11.1) was determined as 9.8 µM; with alt-NHEJ [2] (U2OS, read-out: alt-NHEJ IC50), 1.7 µM. Further, at Human hERG (Kv11.1), the “SIhERG (hERG IC50/alt-NHEJ IC50), called fold reduction in hERG potency” value is given as 5.76.

In the case of `CC(C)C1c2ccc(F)cc2CCC1(O)CCN1CC(Oc2ccc(Cl)cn2)CC1CO` (centres unmarked) [YU252377], in data set [3] (setting [7]), the IC50 at 96 h turned out to be 14.8 µM. Besides, the IC50 at L type Cav 1.2 was 6.3 µM; on T type Cav 3.1 it was 5.3 µM; at T type Cav 3.2, 5.6 µM; on T type Cav 3.3, 8.2 µM; against Human hERG (Kv11.1), 6.43 µM; in the data set with HR, over 60 µM. Besides, the IC50 in the data set with alt-NHEJ [2] (U2OS, read-out: alt-NHEJ IC50) came out at 1.53 µM; in the data set with alt-NHEJ [2] (read-out: nc-EJ IC50), 1.5 µM. Besides, the “SIhERG (hERG IC50/alt-NHEJ IC50), called fold reduction in hERG potency” value at Human hERG (Kv11.1) is reported as 4.20. This compound gave a half-life in data set [4] (female, athymic nude, mouse, plasma, po, 30 mg/kg) of 1.81 h. Further, in [4] (female, athymic nude, mouse, plasma, po, 30 mg/kg, Maximum concentration (Cmax), oral 30 mg/kg, female athymic nude mice, YU252222 given as methyl ester prodrug), the Cmax is 68.9 ng/mL. The “% AUC Extrapolation” value in data set [4] (setting [8]) was 1.1%. In addition, in [4] (setting [8]), the “AUC(0-x)/Dose” value amounted to 5.83 ng·h/mL/mg/kg. Further, the Cmax/Dose in data set [4] (setting [8]) came out at 2.30 ng/mL/mg/kg. Besides, the “Time at which Cmax was observed (tmax)” value in [4] (setting [8]) is 1.0 h. The “Area under concentration vs time curve (AUC) (0-x)” value in [4] (setting [9]) is 175 ng·h/mL. In addition, the “Maximum concentration (Cmax)” value in data set [4] (oral 30 mg/kg, female athymic nude mice, YU252222 given as methyl ester prodrug, 30 mg/kg) is on record as under 100 ng/mL. Further, the “brain exposure” value in data set [5] (setting [8]) was “did not achieve detectable brain exposure”.

As for `CC(C)C(C(=O)NCCCN1CC=C(c2ccc(Cl)cc2)CC1)c1ccc(F)cc1` (centres unmarked) [YU252386], in [3] (setting [7]), the IC50 at 96 h came out at 17.9 µM. In addition, the IC50 is 5.6 µM on L type Cav 1.2; 0.9 µM at T type Cav 3.1; 0.9 µM on T type Cav 3.2; 1.1 µM on T type Cav 3.3; 17.9 µM against CYP3A4 (human liver microsomes); 0.87 µM on CYP2D6. Further, the IC50 is over 60 µM in the data set with HR; 1.06 µM in the data set on alt-NHEJ [2] (U2OS, read-out: alt-NHEJ IC50); 1.1 µM in the data set on alt-NHEJ [2] (read-out: nc-EJ IC50). The selectivity ratio on CYP3A4 (human, human liver microsomes, ratio, read-out: SICYP 3A4 (selectivity index of CYP, CYP3A4 IC50 to alt-NHEJ IC50), called fold decrease in CYP3A4 inhibition) was determined as 16.9; on CYP2D6 (human, ratio, read-out: SICYP 2D6 (selectivity index of CYP, CYP2D6 IC50 to alt-NHEJ IC50), called fold decrease in CYP2D6 inhibition) it was 0.82. The “SICYP 3A4 (selectivity index of CYP, CYP3A4 IC50 to alt-NHEJ IC50), called fold decrease in CYP3A4 inhibition” value at CYP3A4 (ratio) is listed as ~ 17. In addition, the half-life in [4] (setting [10]) is 4.01 h; in data set [5] (setting [10]), about 2.5 h. Further, the “% AUC Extrapolation” value in data set [4] (setting [8]) is 7.5%. Besides, the “AUC(0-x)/Dose” value in data set [4] (setting [8]) worked out at 45.0 ng·h/mL/mg/kg. This compound had a Cmax/Dose in data set [4] (setting [8]) of 11.3 ng/mL/mg/kg. For the same compound, the “Time at which Cmax was observed (tmax)” value in data set [4] (setting [8]) was 1.0 h. For the same compound, in [4] (setting [8]), the “plasma concentration compared with mibefradil” value was ~ 0.3 fold. Further, the “Area under concentration vs time curve (AUC) (0-x)” value in [4] (setting [9]) stood at 1350 ng·h/mL. Besides, in data set [5] (setting [8]), the “brain concentration relative to the alt-NHEJ IC50” value is on record as ~ 3 fold. Moreover, in [5] (setting [8]), the “brain exposure compared to mibefradil” value is ~ 8 fold. The “percent coverage of the in vitro alt-NHEJ IC50 at the Cmax in the brain” value in data set [5] (setting [8]) turned out to be 300%.
